Legend:
Assay in all cases: cells
Format in all cases: cell-based, human
[1] = system: NCI-H460; conditions: read-out: GI50 NCI-H460 lung
[2] = system: Hep3b; conditions: read-out: GI50 Hep3b liver
[3] = system: SF-268; conditions: read-out: GI50 SF-268 CNS
[4] = system: H1299; conditions: read-out: GI50 H1299 lung (−p53)
[5] = system: DU-145; conditions: read-out: GI50 DU-145 prostate
[6] = system: HCT-15; conditions: read-out: GI50 HCT-15 colorectal
[7] = system: SKOV3; conditions: read-out: GI50 SKOV3 ovary
[8] = system: MCF7; conditions: read-out: GI50 MCF7 breast
[9] = system: HT29; conditions: read-out: GI50 HT29 colorectal
[10] = system: A549; conditions: read-out: GI50 A549 lung (+p53)

| SMILES | GI50 [1] | GI50 [2] | GI50 [3] | GI50 [4] | GI50 [5] | GI50 [6] | GI50 [7] | GI50 [8] | GI50 [9] | GI50 [10] |
| --- | --- | --- | --- | --- | --- | --- | --- | --- | --- | --- |
| CON(CCCCc1ccc(N(CCCl)CCCl)cc1)C1CC(O)C(O)CO1 (mixture of isomers) [Compound 55] | 5.8 ± 0.6 µM | 2.6 ± 0.1 µM | 2.1 ± 0.1 µM | 3.7 ± 0.2 µM | 4 ± 0.1 µM | 2.3 ± 0.1 µM | 2 ± 0.1 µM | 0.96 ± 0.02 µM | 2.6 ± 0.1 µM | 2.6 ± 0.2 µM |
| CON(CCCCc1ccc(N(CCCl)CCCl)cc1)C1OC(CO)C(O)C(O)C1O (stereo not drawn) [Compound 29] | 14.3 ± 0.9 µM | 5 ± 0.6 µM | 2.2 ± 0.1 µM | 1.6 ± 0.1 µM | 7 ± 0.5 µM | 2.8 ± 0.2 µM | 4.5 ± 0.6 µM | 1.8 ± 0.2 µM | 4.6 ± 0.4 µM | 6.8 ± 0.8 µM |
| CON(CCCCc1ccc(N(CCCl)CCCl)cc1)C1OC(CO)C(O)C(O)C1F (stereo not drawn) [Compound 31] | 6.4 ± 0.07 µM | 3.2 ± 0.1 µM | 2.2 ± 0.1 µM | 1.2 ± 0.1 µM | 4.2 ± 0.1 µM | 1.08 ± 0.04 µM | 2 ± 0.1 µM | 7.3 ± 0.1 µM | 2.4 ± 0.2 µM | 2.6 ± 0.1 µM |
| CON(CCCCc1ccc(N(CCCl)CCCl)cc1)[C@@H]1O[C@@H](CO)[C@@H](O)[C@@H](O)[C@H]1O [Compound 59] | 4.3 ± 0.4 µM | 2.6 ± 0.1 µM | 1.7 ± 0.1 µM | 2.4 ± 0.2 µM | 3.4 ± 0.1 µM | 2 ± 0.1 µM | 2 ± 0.1 µM | 1.8 ± 0.3 µM | 1.9 ± 0.1 µM | 2.7 ± 0.2 µM |
| CON(CCCCc1ccc(N(CCCl)CCCl)cc1)C1OC[C@H](O)[C@H](O)[C@@H]1O (stereo partly drawn) [Compound 54, N-Methoxy-4-(4-N′,N′-bis(2-chloroethyl)amino)phenylbutylamino-L-riboside] | 5.7 ± 0.6 µM | 2.4 ± 0.1 µM | 2.1 ± 0.2 µM | 3.3 ± 0.2 µM | 3.7 ± 0.1 µM | 2.1 ± 0.1 µM | 2 ± 0.1 µM | 0.97 ± 0.02 µM | 2.2 ± 0.1 µM | 2.4 ± 0.1 µM |
| CON(CCCCc1ccc(N(CCCl)CCCl)cc1)C1OC(CO)C(O)C(F)C1O (stereo not drawn) [Compound 32] | 7.1 ± 0.9 µM | 3.2 ± 0.1 µM | 2.2 ± 0.1 µM | 1.3 ± 0.1 µM | 4.1 ± 0.1 µM | 1.2 ± 0.1 µM | 2.2 ± 0.1 µM | 7 ± 0.8 µM | 2.6 ± 0.2 µM | 3 ± 0.1 µM |
| CON(CCCCc1ccc(N(CCCl)CCCl)cc1)C1OC(CO)C(O)C(O)C1O (mixture of isomers) [Compound 12] | 6.6 ± 0.4 µM | 1.7 ± 0.1 µM | 1.9 ± 0.1 µM | 0.91 ± 0.05 µM | 4.1 ± 0.2 µM | 1.4 ± 0.1 µM | 1.9 ± 0.1 µM | 6.5 ± 0.1 µM | 1.6 ± 0.2 µM | 2.4 ± 0.1 µM |
| CON(CCCCc1ccc(N(CCCl)CCCl)cc1)C1OC(COCc2ccccc2)C(OCc2ccccc2)C1OCc1ccccc1 (stereo not drawn) [Compound 57] | > 100 µM | > 100 µM | > 100 µM | 82 ± 7 µM | > 100 µM | > 100 µM | > 100 µM | > 100 µM | > 100 µM | > 100 µM |
| CON(CCCCc1ccc(N(CCCl)CCCl)cc1)C1OC(CO)C(OC2OC(CO)C(O)C(O)C2O)C(O)C1O (mixture of isomers) [Compound 17] | 3.8 ± 0.3 µM | 1.2 ± 0.1 µM | 1.5 ± 0.1 µM | 1.8 ± 0.1 µM | 1.8 ± 0.1 µM | 2.3 ± 0.1 µM | 1.8 ± 0.1 µM | 1.7 ± 0.1 µM | 1.9 ± 0.1 µM | 1.6 ± 0.1 µM |
| O=C1O[C@@H]2[C@@H](O)[C@H](N(O)CCCCc3ccc(N(CCCl)CCCl)cc3)O[C@@H]2[C@@H]1O [Compound 67, N-Hydroxy-4-(4-N′,N′-bis(2-chloroethyl)amino)phenylbutylamino-D-glucurono-6,3-lactonide] | 13.1 ± 0.4 µM | 7.2 ± 0.3 µM | 3.1 ± 0.1 µM | 3.8 ± 0.1 µM | 14.8 ± 0.8 µM | 8.5 ± 0.5 µM | 10.1 ± 0.4 µM | 4.1 ± 0.2 µM | 9.9 ± 0.2 µM | 10.4 ± 0.6 µM |
| CON(CCCCc1ccc(N(CCCl)CCCl)cc1)C1CC(O)C(O)C(C)O1 (stereo not drawn) [Compound 50] | 5.7 ± 0.6 µM | 3.8 ± 0.2 µM | 2.3 ± 0.8 µM | 4.8 ± 0.5 µM | 5.5 ± 0.1 µM | 2.5 ± 0.2 µM | 3.2 ± 0.1 µM | 3.1 ± 0.2 µM | 3.2 ± 0.2 µM | 3.1 ± 0.2 µM |
| CON(CCCCc1ccc(N(CCCl)CCCl)cc1)C1OC(CO)C(O)C(O)C1O (mixture of isomers) [Compound 24] | 10.4 ± 0.7 µM | 3.8 ± 0.3 µM | 2 ± 0.4 µM | 1.4 ± 0.1 µM | 5.5 ± 0.2 µM | 2.3 ± 0.3 µM | 4.1 ± 0.6 µM | 1.3 ± 0.1 µM | 3.7 ± 0.5 µM | 4.8 ± 0.4 µM |
